Data published in patent US10259810B2, “N-sulfonylated pyrazolo[3,4-b]pyridin-6-carboxamides and method of use” (AbbVie S.à.r.l., priority 2015, dated 2019).
Where two headings read alike, the source gives them in different places.

Assays:
Type in all cases: cell-based
CFTR ΔF508 = target: T1, CFTR ΔF508 (Homo sapiens, UniProt P13569, DEL508-508); assay: Chronic TECC assay, primary bronchial epithelial cells of CF patients homozygous for CFTR ΔF508 (corrector, co-corrector and potentiator); details: for % Activity at 1 μM (AUC**): test compound at 1 μM; for % Activity at 3 μM (AUC**): test compound at 3 μM
T1 construct: bronchial epithelial cells isolated from CF patients homozygous for the CFTR ΔF508 mutation; McGill University; Asterand; University of North Carolina hAEC-CF; host or cells: primary human bronchial epithelial cells from CF patients homozygous for ΔF508, differentiated at air-liquid interface
Procedure, shortened: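 Primary bronchial epithelial cells from ΔF508-homozygous CF patients on collagen IV-coated Transwells were chronically treated with test compound plus corrector and potentiator, which were re-added before recording. Ieq was derived from PD and Rt in NaCl-Ringer, pH 7.4, at 37° C, with apical amiloride and bilateral forskolin, recorded every 2 min over 20 min. Ieq increase was normalized to controls, and EC50 was taken from per-well concentrations.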

ΔF508-CFTR [1] = target: T2, ΔF508-CFTR (Homo sapiens, UniProt P13569, DEL508-508); assay: CFTR cell surface levels using HRP-tagged ΔF508-CFTR expressing CFBE cells, in the presence of a co-corrector
T2 construct: host or cells: CFBE41o-, doxycycline-inducible
Procedure, shortened: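 Chemiluminescent read-out of surface HRP (15 min, dark) after PBS washes. Activity is normalized as 100×(sample−DMSO)/(3 μM co-corrector alone−DMSO).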

ΔF508-CFTR [2] = target: T2, ΔF508-CFTR; assay: CFTR cell surface levels using HRP-tagged ΔF508-CFTR expressing CFBE cells, intrinsic corrector capacity; set-up: % Activation: concentration or dose not given beside the values
Procedure, shortened: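 Read-out: chemiluminescent HRP activity of ECL4-HRP-tagged ΔF508-CFTR at the cell surface, 15 min substrate in dark. Normalized as 100×(sample−DMSO)/(positive control−DMSO).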

[3] = chronic TECC, AUC = full area under the curve upon forskolin stimulation
[4] = HRP-tagged ΔF508-CFTR CFBE cells, in the presence of 3 μM co-corrector
[5] = HRP-tagged ΔF508-CFTR CFBE cells, in the presence of 3 μM co-corrector, read-out: EC50
[6] = HRP-tagged ΔF508-CFTR expressing CFBE41o- cells, compound alone (intrinsic corrector capacity), 20 hours at 33° C.
[7] = HRP-tagged ΔF508-CFTR expressing CFBE41o- cells, compound alone (intrinsic corrector capacity), 20 hours at 33° C., read-out: EC50
[8] = chronic TECC, AUC = full area under the curve upon forskolin stimulation, read-out: EC50 (nM) (AUC**)

T1 sequence (P13569 with tags, fused parts or gaps DEL508-508): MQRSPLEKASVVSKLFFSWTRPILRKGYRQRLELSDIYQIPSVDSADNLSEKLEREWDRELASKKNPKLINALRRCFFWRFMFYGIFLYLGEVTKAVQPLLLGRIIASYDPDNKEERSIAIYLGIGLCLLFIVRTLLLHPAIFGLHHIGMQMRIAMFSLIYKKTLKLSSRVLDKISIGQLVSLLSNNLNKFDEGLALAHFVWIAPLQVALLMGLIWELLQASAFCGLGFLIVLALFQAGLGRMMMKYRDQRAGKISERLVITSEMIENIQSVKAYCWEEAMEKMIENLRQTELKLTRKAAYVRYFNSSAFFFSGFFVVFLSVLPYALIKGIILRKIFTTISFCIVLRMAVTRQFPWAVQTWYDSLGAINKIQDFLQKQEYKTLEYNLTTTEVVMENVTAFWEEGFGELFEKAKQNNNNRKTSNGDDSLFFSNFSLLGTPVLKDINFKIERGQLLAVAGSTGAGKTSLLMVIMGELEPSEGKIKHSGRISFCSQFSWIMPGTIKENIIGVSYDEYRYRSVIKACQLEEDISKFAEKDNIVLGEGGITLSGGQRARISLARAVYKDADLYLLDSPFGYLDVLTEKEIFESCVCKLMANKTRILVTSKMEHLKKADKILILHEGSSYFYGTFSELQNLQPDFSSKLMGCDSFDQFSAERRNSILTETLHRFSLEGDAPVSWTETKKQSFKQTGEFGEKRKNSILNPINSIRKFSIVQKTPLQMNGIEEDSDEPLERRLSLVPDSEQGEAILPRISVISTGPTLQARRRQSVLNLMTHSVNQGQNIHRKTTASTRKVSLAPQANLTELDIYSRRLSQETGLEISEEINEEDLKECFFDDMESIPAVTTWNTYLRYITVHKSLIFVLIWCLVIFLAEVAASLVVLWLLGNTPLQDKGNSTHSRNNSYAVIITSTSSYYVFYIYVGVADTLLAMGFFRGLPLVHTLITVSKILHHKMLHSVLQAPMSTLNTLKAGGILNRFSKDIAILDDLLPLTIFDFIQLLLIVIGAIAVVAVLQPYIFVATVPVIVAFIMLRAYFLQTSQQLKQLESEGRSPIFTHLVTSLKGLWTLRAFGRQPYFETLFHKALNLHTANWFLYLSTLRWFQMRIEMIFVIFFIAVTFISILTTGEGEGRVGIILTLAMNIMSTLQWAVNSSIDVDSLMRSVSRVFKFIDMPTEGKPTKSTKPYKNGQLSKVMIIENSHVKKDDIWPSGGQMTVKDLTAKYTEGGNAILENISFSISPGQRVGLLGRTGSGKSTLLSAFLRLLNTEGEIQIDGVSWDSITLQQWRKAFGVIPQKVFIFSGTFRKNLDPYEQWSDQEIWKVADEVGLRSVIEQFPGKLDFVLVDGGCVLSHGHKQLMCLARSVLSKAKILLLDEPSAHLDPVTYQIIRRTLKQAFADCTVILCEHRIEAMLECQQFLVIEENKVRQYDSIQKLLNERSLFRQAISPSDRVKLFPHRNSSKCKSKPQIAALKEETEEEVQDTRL
T2 sequence (P13569 with tags, fused parts or gaps DEL508-508): as above

Row | Structure (SMILES) | % Activity at 1 μM (AUC**) (CFTR ΔF508; [3]) [%] | % Activation (ΔF508-CFTR [1]; [4]) [%] | EC50 (ΔF508-CFTR [1]; [5]) [nM] | % Activation (ΔF508-CFTR [2]; [6]) [%] | EC50 (ΔF508-CFTR [2]; [7]) [nM] | EC50 (CFTR ΔF508; [8]) [nM] | EC50 (CFTR ΔF508) [nM] | EC50 (ΔF508-CFTR [1]) [nM] | EC50 (ΔF508-CFTR [2]) [nM] | % Activity at 3 μM (AUC**) (CFTR ΔF508; [3]) [%] | EC50 (CFTR ΔF508; chronic TECC, Ieq = calculations based on the maximum current, read-out: EC50 (nM) (Ieq*))
1 | COCCN1CCN(c2cc(C(=O)NS(C)(=O)=O)nc3c2c(C(C)C)nn3-c2ccc(F)cc2)CC1 [Compound 340, 1-(4-fluorophenyl)-N-(methanesulfonyl)-4-[4-(2-methoxyethyl)piperazin-1-yl]-3-(propan-2-yl)-1H-pyrazolo[3,4-b]pyridine-6-carboxamide] | 216.53 | 319.2 | 786 | 138.95 | 1390 |  |  |  |  |  | 
2 | CC(C)c1nn(-c2ccc(F)cc2)c2nc(C(=O)NS(C)(=O)=O)cc(N3CCC(N4CCCCC4)CC3)c12 [Compound 348, 4-([1,4'-bipiperidin]-1'-yl)-1-(4-fluorophenyl)-N-(methanesulfonyl)-3-(propan-2-yl)-1H-pyrazolo[3,4-b]pyridine-6-carboxamide] | 343.24 | 468.65 | 723 | 293.6 | 5970 | 200 |  |  |  |  | 
3 | CS(=O)(=O)NC(=O)c1cc(N2CCC(N3CCCCC3)CC2)c2c(C3CCC3)nn(-c3ccccc3)c2n1 [Compound 365, 4-([1,4′-bipiperidin]-1′-yl)-3-cyclobutyl-N-(methanesulfonyl)-1-phenyl-1H-pyrazolo[3,4-b]pyridine-6-carboxamide] |  | 469.95 |  | 313 |  |  | 200 | 271 | 1670 |  | 
4 | COCC1CCN(c2cc(C(=O)NS(=O)(=O)C3CCOC3)nc3c2c(C2CCC2)nn3-c2ccccc2)CC1 (stereo not shown) [Compound 369, 3-cyclobutyl-4-[4-(methoxymethyl)piperidin-1-yl]-N-(oxolane-3-sulfonyl)-1-phenyl-1H-pyrazolo[3,4-b]pyridine-6-carboxamide] | 583.16 | 444 | 106 | 292.7 | 101 | 8.3 |  |  |  |  | 
5 | COCC1CCN(c2cc(C(=O)NS(C)(=O)=O)nc3c2c(C(C)C)nn3-c2cc(C)nc(C)c2)CC1 [Compound 370, 1-(2,6-dimethylpyridin-4-yl)-N-(methanesulfonyl)-4-[4-(methoxymethyl)piperidin-1-yl]-3-(propan-2-yl)-1H-pyrazolo[3,4-b]pyridine-6-carboxamide] |  | 343.2 | 691 | 172.2 | 1490 |  |  |  |  | 226.54 | 
6 | COCC1CN(C2CCN(c3cc(C(=O)NS(=O)(=O)N(C)C)nc4c3c(C3CCC3)nn4-c3ccc(F)cc3)CC2)CCO1 (stereo not shown) [Compound 379, 3-cyclobutyl-N-(dimethylsulfamoyl)-1-(4-fluorophenyl)-4-{4-[2-(methoxymethyl)morpholin-4-yl]piperidin-1-yl}-1H-pyrazolo[3,4-b]pyridine-6-carboxamide] |  | 440.55 | 61.1 | 268.45 | 141 | 43 |  |  |  |  | 
7 | CC(C)N1CCN(C2CCN(c3cc(C(=O)NS(=O)(=O)N(C)C)nc4c3c(C3CCC3)nn4-c3ccc(F)cc3)CC2)CC1 [Compound 382, 3-cyclobutyl-N-(dimethylsulfamoyl)-1-(4-fluorophenyl)-4-{4-[4-(propan-2-yl)piperazin-1-yl]piperidin-1-yl}-1H-pyrazolo[3,4-b]pyridine-6-carboxamide] |  | 500.01 | 158 | 305.9 | 261 |  |  |  |  | 347 | 205
8 | COCC1CCN(c2cc(C(=O)NS(C)(=O)=O)nc3c2c(C2CCC2)nn3-c2ccnc(OC)c2)CC1 [Compound 385, 3-cyclobutyl-N-(methanesulfonyl)-4-[4-(methoxymethyl)piperidin-1-yl]-1-(2-methoxypyridin-4-yl)-1H-pyrazolo[3,4-b]pyridine-6-carboxamide] |  | 393.53 | 64 | 227.5 | 121 | 12.3 |  |  |  |  | 
9 | COCC1CCN(c2cc(C(=O)NS(=O)(=O)N3CCOCC3)nc3c2c(C2CCC2)nn3-c2ccccc2)CC1 [Compound 396, 3-cyclobutyl-4-[4-(methoxymethyl)piperidin-1-yl]-N-(morpholine-4-sulfonyl)-1-phenyl-1H-pyrazolo[3,4-b]pyridine-6-carboxamide] |  | 385.8 | 55 | 222.9 | 121 |  |  |  |  | 259.4666 | 
10 | COCC1CCN(c2cc(C(=O)NS(=O)(=O)N3CCC(N4CCOCC4)CC3)nc3c2c(C2CCC2)nn3-c2ccccc2)CC1 [Compound 397, 3-cyclobutyl-4-[4-(methoxymethyl)piperidin-1-yl]-N-[4-(morpholin-4-yl)piperidine-1-sulfonyl]-1-phenyl-1H-pyrazolo[3,4-b]pyridine-6-carboxamide] |  | 381.8 | 49 | 234.5 | 155 |  |  |  |  | 251.7766 | 
11 | COCC1CCN(c2cc(C(=O)NS(=O)(=O)N3CCC(F)CC3)nc3c2c(C2CCC2)nn3-c2ccccc2)CC1 [Compound 399, 3-cyclobutyl-N-(4-fluoropiperidine-1-sulfonyl)-4-[4-(methoxymethyl)piperidin-1-yl]-1-phenyl-1H-pyrazolo[3,4-b]pyridine-6-carboxamide] | 244.7508 | 388.77 | 44.2 | 237.5 | 72.1 |  |  |  |  |  | 
12 | COCC1CCN(c2cc(C(=O)NS(=O)(=O)N3CCN(C)CC3)nc3c2c(C2CCC2)nn3-c2ccccc2)CC1 [Compound 400, 3-cyclobutyl-4-[4-(methoxymethyl)piperidin-1-yl]-N-(4-methylpiperazine-1-sulfonyl)-1-phenyl-1H-pyrazolo[3,4-b]pyridine-6-carboxamide] | 230 | 365.43 | 157 | 180.65 | 163 |  |  |  |  |  | 
13 | COCC1CCN(c2cc(C(=O)NS(=O)(=O)N(C)C)nc3c2c(C2CCC2)nn3-c2ccccc2)CC1 [Compound 402, 3-cyclobutyl-N-(dimethylsulfamoyl)-4-[4-(methoxymethyl)piperidin-1-yl]-1-phenyl-1H-pyrazolo[3,4-b]pyridine-6-carboxamide] | 345.045 | 471.42 | 116 | 303.5 | 312 | 12.1 |  |  |  |  | 
14 | CC(C)Oc1nn(C2CCCCC2)c2nc(C(=O)NS(C)(=O)=O)cc(-c3ccc(CN4CCOCC4)cc3)c12 [Compound 404, 1-cyclohexyl-N-(methanesulfonyl)-4-{4-[(morpholin-4-yl)methyl]phenyl}-3-[(propan-2-yl)oxy]-1H-pyrazolo[3,4-b]pyridine-6-carboxamide] | 433.3333 | 370 | 126 | 181.2 | 186 |  |  |  |  |  | 
15 | COCCS(=O)(=O)NC(=O)c1cc(-c2ccc(CN3CCOCC3)cc2)c2c(OC(C)C)nn(C3CCCCC3)c2n1 [Compound 405, 1-cyclohexyl-N-(2-methoxyethanesulfonyl)-4-{4-[(morpholin-4-yl)methyl]phenyl}-3-[(propan-2-yl)oxy]-1H-pyrazolo[3,4-b]pyridine-6-carboxamide] | 323.3333 | 326.9 | 102 | 160.8 | 191 |  |  |  |  |  | 
